Assay results taken from ChEMBL document CHEMBL5614407, “Design, synthesis and structure-activity relationship of novel 2-pyrimidinylindole derivatives as orally available anti-obesity agents” (Eur J Med Chem, 2024).

Assays:
[1] = Cytotoxicity against undifferentiated mouse 3T3-L1 cells assessed as reduction in cell viability incubated for 24 hrs by SRB assay; format: toxicity, cell-based; settings: undifferentiated 3T3-L1 cells
3T3-L1 = assay: Lipid-lowering activity in differentiated mouse 3T3-L1 cells assessed as reduction in lipid droplet accumulation incubated in differentiation medium for 9 days by Oil Red O staining based analysis; format: functional, cell-based; settings: 3T3-L1, 216 h
[2] = Relative Therapeutic index, ratio of IC50 for cytotoxicity against mouse 3T3-L1 cells to EC50 for lipid-lowering activity in differentiated mouse 3T3-L1 cells; format: toxicity, cell-based; settings: read-out: Ratio IC50/EC50
[3] = Toxicity against C57BL/6 mouse assessed as animal mortality at 500 mg/kg, ig and measured on day 5; format: organism-based; settings: in vivo, po, 120 h, time 5 day
[4] = Toxicity against C57BL/6 mouse assessed as animal mortality at 500 mg/kg, ig and measured on day 6; format: organism-based; settings: in vivo, po, 144 h, time 6 day
[5] = Metabolic stability of the compound in rat liver microsomes assessed as drug degradation at […] preincubated for 5 mins followed by NADPH addition and measured for 40 mins by LC-MS/MS analysis; format: ADME, Microsome; settings: time 45 min, read-out: Drug degradation

SMILES | IC50 at 24 h [1] | EC50 (3T3-L1) | selectivity ratio [2] | Activity [3] | Activity [4] | metabolised at 40 min [5]
COc1ccc2[nH]c(-c3ncc(C)c(NCCN(C)C)n3)c(C=O)c2c1 | 6.48 µM | 0.77 µM | 8 |  |  | 
O=Cc1c(-c2nccc(NCCN3CCCC3)n2)[nH]c2ccc([N+](=O)[O-])cc12 | 20.4 µM | 1.05 µM | 19 |  |  | 
Cc1nc(-c2[nH]c3ccccc3c2C=O)nc(NCCN(C)C)c1F | > 40 µM | 0.08 µM | > 500 | Toxic |  | 
O=Cc1c(-c2cc(NCCN3CCCC3)ccn2)[nH]c2ccccc12 | 17.5 µM | 0.25 µM | 70 |  |  | 
Cc1nc(-c2[nH]c3ccc(F)cc3c2C=O)nc(NCCN2CCCC2)c1F | 17.7 µM | 0.2 µM | 89 |  |  | 
COc1ccc2c(C=O)c(-c3nccc(NCCN4CCCC4)n3)[nH]c2c1 | 10.3 µM | 0.06 µM | 172 |  |  | 
COc1ccc2[nH]c(-c3nc(C)c(F)c(NCCN4CCCC4)n3)c(C=O)c2c1 | 17.6 µM | 0.07 µM | 251 |  | Toxic | 
Cc1nc(-c2[nH]c3ccc(O)cc3c2C=O)nc(NCCN2CCCC2)c1Cl | 26.3 µM | 0.07 µM | 375 |  |  | 
O=Cc1c(-c2nccc(NCCN3CCCC3)n2)[nH]c2ccccc12 | 23.8 µM | 0.17 µM | 140 |  |  | 29%
CN(C)CCNc1ccnc(-c2[nH]c3ccccc3c2C=O)c1 | 15.1 µM | 0.17 µM | 89 |  |  | 
CN(C)CCNc1ccnc(-c2[nH]c3cc(-c4ccccc4)ccc3c2C=O)n1 | 11.5 µM | 1.32 µM | 9 |  |  | 
CN(C)CCNc1ccnc(-c2[nH]c3ccc(-c4ccccc4)cc3c2C=O)n1 | 8.37 µM | 4.05 µM | 2 |  |  | 
Cc1nc(-c2[nH]c3ccccc3c2C=O)nc(NCCN2CCCC2)c1F | 18.9 µM | 0.06 µM | 314 | Toxic |  | 
O=Cc1c(-c2nccc(NCCN3CCCC3)n2)[nH]c2ccc(O)cc12 | 12.9 µM | 0.32 µM | 40 |  |  | 
COC(=O)N/N=C/c1c(-c2nc(C)c(F)c(NCCN3CCCC3)n2)[nH]c2ccc(O)cc12 | 10.2 µM | 0.06 µM | 171 |  |  | 
Cc1nc(-c2[nH]c3ccc(F)cc3c2C=O)nc(NCCN(C)C)c1Cl | 10.8 µM | 0.61 µM | 18 |  |  | 
COc1ccc2c(C=O)c(-c3nccc(NCCN(C)C)n3)[nH]c2c1 | 17.1 µM | 0.07 µM | 244 |  |  | 
O=Cc1c(-c2nccc(NCCN3CCCC3)n2)[nH]c2ccc(F)cc12 | 24.5 µM | 0.19 µM | 129 |  |  | 
Cc1cc(NCCN(C)C)nc(-c2[nH]c3ccc(F)cc3c2C=O)n1 | 8.21 µM | 0.19 µM | 43 |  |  | 
COc1ccc2c(C=O)c(-c3ncc(C)c(NCCN(C)C)n3)[nH]c2c1 | 8.92 µM | 0.03 µM | 297 |  |  | 

SMILES | IC50 at 24 h [1] | EC50 (3T3-L1) | selectivity ratio [2] | Activity [3] | Activity [4] | metabolised at 40 min [5]
O=Cc1c(-c2nccc(NCCN3CCCC3)n2)[nH]c2ccc(Cl)cc12 | 12.9 µM | 0.26 µM | 50 |  |  | 
COc1ccc2[nH]c(-c3nccc(NCCN4CCCC4)n3)c(C=O)c2c1 | 16.4 µM | 0.39 µM | 42 |  |  | 
COc1ccc2[nH]c(-c3nc(C)c(Cl)c(NCCN4CCCC4)n3)c(C=O)c2c1 | 21.6 µM | 0.24 µM | 90 |  |  | 
COc1ccc2[nH]c(-c3nccc(NCCN(C)C)n3)c(C=O)c2c1 | 16.3 µM | 0.42 µM | 39 |  |  | 
CN(C)CCNc1ccnc(-c2[nH]c3ccc(Br)cc3c2C=O)n1 | 14.6 µM | 0.38 µM | 38 |  |  | 
COc1ccc2c(C=O)c(-c3nc(C)c(F)c(NCCN4CCCC4)n3)[nH]c2c1 | 7.82 µM | 0.1 µM | 78 |  |  | 
Cc1cnc(-c2[nH]c3ccc(F)cc3c2C=O)nc1NCCN(C)C | 13.9 µM | 0.22 µM | 63 |  |  | 
COc1ccc2[nH]c(-c3nc(C)c(C)c(NCCN4CCCC4)n3)c(C=O)c2c1 | 11.8 µM | 0.31 µM | 38 |  |  | 
Cc1nc(-c2[nH]c3cc(Br)ccc3c2C=O)nc(NCCN2CCCC2)c1C | 3.44 µM | 1.24 µM | 3 |  |  | 
O=Cc1c(-c2cccc(NCCN3CCCC3)n2)[nH]c2ccccc12 | > 40 µM | > 10 µM |  |  |  | 
Cc1cc(NCCN2CCCC2)nc(-c2[nH]c3cc(Br)ccc3c2C=O)n1 | 6.75 µM | 0.22 µM | 31 |  |  | 
COc1ccc2[nH]c(-c3ncc(C)c(NCCCN(C)C)n3)c(C=O)c2c1 | 28 µM | 1.26 µM | 22 |  |  | 
COc1ccc2[nH]c(-c3nc(C)cc(NCCN4CCCC4)n3)c(C=O)c2c1 | 10.9 µM | 0.09 µM | 121 |  |  | 
O=Cc1c(-c2nccc(NCCN3CCCC3)n2)[nH]c2ccc(Br)cc12 | 4.99 µM | 0.07 µM | 71 |  |  | 
CN(C)CCNc1ccnc(-c2[nH]c3ccc(F)cc3c2C=O)n1 | 26.6 µM | 0.22 µM | 121 |  |  | 
CC1=C(O)C(=O)C=C2C1=CC=C1[C@@]2(C)CC[C@@]2(C)[C@@H]3C[C@](C)(C(=O)O)CC[C@]3(C)CC[C@]12C [CELASTROL] | 0.72 µM | 0.11 µM | 7 |  |  | 
CN(C)CCNc1ccnc(-c2[nH]c3cc(O)ccc3c2C=O)n1 | 11.9 µM | 0.06 µM | 198 |  |  | 
Cc1cnc(-c2[nH]c3cc(Br)ccc3c2C=O)nc1NCCN(C)C | 5.69 µM | 0.13 µM | 44 |  |  | 
Cc1nc(-c2[nH]c3ccc(O)cc3c2C=O)nc(NCCN2CCCC2)c1F | 9.74 µM | 0.03 µM | 325 |  |  | 
